Among the data in EP0061162A2, “Cephalosporin derivatives, pharmaceutical compositions containing the same and production thereof” (KYOTO YAKUHIN KOGYO KABUSHIKI KAISHA, priority 1981, dated 1982) are LD50 values, retold here.

This data set in a line: Acute oral toxicity test in mice. The following applies: mouse, in vivo, suspension in 1% methylcellulose solution, male mice (ICR, 5-week-old), doses 0.5 g to 5.0 g/kg. The procedure: The acut oral toxicity data for cephalosporin derivatives (I) and acid addition salt of the present invention in mice are shown below.
Animals: Male mice (ICR, 5-week-old), n=3
Method of administration: The cephalosporin derivatives as prepared in the above synthesis examples were administered in the form of suspension in 1% methylcellulose solution to mice orally at doses of 0.5 g to 5.0 g/kg.

As usually defined, the LD50 is the dose expected to kill half of the subjects tested. A higher LD50 goes with a less toxic substance. On to `CCOC(=O)OC(C)OC(=O)C1=CCS[C@@H]2[C@H](NC(=O)/C(=N\OC)c3csc(N)n3)C(=O)N12` (single isomer, unassigned) [Compound 1, l-(ethoxycarbonyloxy)ethyl 7-[2-(2-aminothiazol-4-yl)-2-methoxyiminoacetamido]-3-cephem-4-carboxylate (syn isomer)], for which the LD50 was over 5000 mg/kg.
